Data set [1] concerns Nitrosomonas europaea IF014298 with luciferase gene (luxAB). Kind of data set: in-vitro nitrification bacteria test, biological luminescence accompanying nitrification reaction. As to conditions: incubation at 15° C. for 30 minutes; for 80% inhibitory concentration: concentration where the nitrification inhibitory ratio became 80%.
For data set [2] the following is noted: in the ordinarily used range; RTECS No. QJ5775000; cited from earlier work.

`N#CN=C(N)N` [Comparative Example 15, dicyanodiamide, reference compound]: the 80% inhibitory concentration in data set [1] is reported as 185 ppm.
The same measure, in the same setting: with `Clc1cccc(C(Cl)(Cl)Cl)n1` [Comparative Example 14, 2-chloro-6-Trichloromethylpyridine, reference compound] the figure was 4 ppm.
`O=C1C=CC(=O)c2c(O)cccc21` [Example 1, 5-hydroxy-1,4-naphtoquinone]: in data set [2], the toxicity entry was “low toxicity”. Also, the 80% inhibitory concentration in data set [1] stood at 0.08 ppm. Also, the 50% inhibitory concentration in data set [1] (concentration where the nitrification-inhibitory ratio became 50%) is reported as 0.03 ppm.
